Assay results: US20190133128A1, “Fungicidal pyridazinones” (FMC Corporation, priority 2017, published 2019)

Tests used:
Assay type in all cases: in vivo
Phytophthora infestans = experiment: whole plant or invertebrate; details: for Test D disease control rating: tomato seedlings; for pest or weed control at 250 ppm: Phytophthora infestans, in Solanum lycopersicum, read-out: Test D disease control rating
Botrytis cinerea = experiment: Test C: preventive spray on tomato seedlings, gray mold, visual disease rating; details: for pest or weed control at 250 ppm: Botrytis cinerea
From the text: (§1) General protocol for preparing test solutions for Tests AG: the test compounds were first dissolved in acetone in an amount equal to 3% of the final volume and then suspended at the desired concentration (in ppm) in acetone and purified water (50/50 mix by volume) containing the surfactant PEG400 (polyhydric alcohol esters). The resulting test suspensions were then used in Tests AG. Compounds were sprayed at a concentration of 250 ppm or other indicated rate to the point of run-off on the test plants. The test solution was sprayed to the point of run-off on tomato seedlings. […] A dash (-) indicates no test results.

[1] = system: Puccinia recondita f. sp. tritici; experiment: Test F: preventive spray on wheat seedlings, wheat leaf rust, visual disease rating; details: for pest or weed control at 250 ppm: Puccinia recondita
From the text: as §1, with “wheat” for “tomato”, “seedlings. The following day the seedlings were inoculated with a spore suspension of Puccinia recondita f. sp. tritici;” for “seedlings.”

[2] = system: Erysiphe graminis f. sp. tritici; experiment: Test G: preventive spray on wheat seedlings, wheat powdery mildew, visual disease rating; details: for pest or weed control at 250 ppm: Blumeria graminis, 192 h
From the text: as §1, with “wheat” for “tomato”

Phakopsora pachyrhizi = experiment: Test A: preventive spray on soybean seedlings, Asian soybean rust, visual disease rating; details: for pest or weed control at 250 ppm: Phakopsora pachyrhizi
Zymoseptoria tritici = experiment: Test E: preventive spray on wheat seedlings, wheat leaf blotch, visual disease rating; details: for pest or weed control at 250 ppm: Zymoseptoria tritici
From the text: as §1, with “wheat” for “tomato”

[3] = 250 ppm, 100 = 100% disease control, 0 = no control

Row | SMILES | Test D disease control rating (Phytophthora infestans; [3]) [%] | Test C disease control rating (Botrytis cinerea; [3]) [%] | Test F disease control rating [1, 3] [%] | Test G disease control rating [2, 3] [%] | Test A disease control rating (Phakopsora pachyrhizi; [3]) [%] | Test E disease control rating (Zymoseptoria tritici; [3]) [%] | further results
1 | Cn1ncc(Cl)c(C(=O)Nc2ccccc2-c2ccc(Cl)cc2)c1=O [Compound 33] | 0 | 0 | 97 | 0 | 48 | 0 | –
2 | COc1ccccc1NC(=O)c1c(O)cnn(C)c1=O [Compound 34] | 0 | 0 | 80 | 0 | 0 | 0 | –
3 | Cn1ncc(O)c(C(=O)Nc2ccccc2Br)c1=O [Compound 35] | 71 | 0 | 98 | 0 | 0 | 0 | –
4 | Cn1ncc(O)c(C(=O)Nc2ccccc2F)c1=O [Compound 36] | 94 | 0 | 98 | 78 | 31 | 0 | –
5 | Cn1ncc(O)c(C(=O)Nc2ccc(F)cc2)c1=O [Compound 40] | 73 | 96 | 95 | 92 | 56 | 96 | –
6 | Cn1ncc(Cl)c(C(=O)Nc2ccc(OC(F)(F)F)cc2)c1=O [Compound 41, 5-Chloro-2,3-dihydro-2-methyl-3-oxo-N-[4-(trifluoromethoxy)phenyl]-4-pyridazinecarboxamide] | – | – | – | – | – | – | pest or weed control at 250 ppm (Phytophthora infestans): 0%; pest or weed control at 250 ppm (Botrytis cinerea; [3]): 0%; pest or weed control at 250 ppm [1, 3]: 89%; pest or weed control at 250 ppm [2, 3]: 0%; pest or weed control at 250 ppm (Phakopsora pachyrhizi; [3]): 87%; pest or weed control at 250 ppm (Zymoseptoria tritici; [3]): 97%
7 | Cn1ncc(Br)c(C(=O)Nc2ccc(OC(F)(F)F)cc2)c1=O [Compound 42, 5-Bromo-2,3-dihydro-2-methyl-3-oxo-N-[4-(trifluoromethoxy)phenyl]-4-pyridazinecarboxamide] | – | – | – | – | – | – | pest or weed control at 250 ppm (Phytophthora infestans): 0%; pest or weed control at 250 ppm (Botrytis cinerea; [3]): 0%; pest or weed control at 250 ppm [1, 3]: 86%; pest or weed control at 250 ppm [2, 3]: 0%; pest or weed control at 250 ppm (Phakopsora pachyrhizi; [3]): 79%; pest or weed control at 250 ppm (Zymoseptoria tritici; [3]): 99%
8 | Cn1ncc(Cl)c(C(=O)Nc2ccc(F)cc2)c1=O [Compound 43] | 68 | 79 | 97 | 0 | 78 | 4 | –
9 | Cn1ncc(O)c(C(=O)Nc2cccc(-c3ccc(Cl)cc3)c2)c1=O [Compound 44] | 0 | 0 | 86 | 0 | 0 | 0 | –
10 | Cn1ncc(O)c(C(=O)Nc2ccc(-c3ccc(F)cc3)cc2)c1=O [Compound 46] | 40 | 16 | 80 | 0 | 77 | 0 | –
11 | Cn1ncc(O)c(C(=O)Nc2ccc(OC(F)F)cc2)c1=O [Compound 47, N-[4-(Difluoromethoxy)phenyl]-2,3-dihydro-5-hydroxy-2-methyl-3-oxo-4-pyridazinecarboxamide] | – | – | – | – | – | – | pest or weed control at 250 ppm (Phytophthora infestans): 88%; pest or weed control at 250 ppm (Botrytis cinerea; [3]): 0%; pest or weed control at 250 ppm [1, 3]: 99%; pest or weed control at 250 ppm [2, 3]: 0%; pest or weed control at 250 ppm (Phakopsora pachyrhizi; [3]): 38%; pest or weed control at 250 ppm (Zymoseptoria tritici; [3]): 77%
12 | Cn1ncc(O)c(C(=O)Nc2ccc(S(C)(=O)=O)cc2)c1=O [Compound 49] | 0 | 0 | 68 | 0 | 0 | 0 | –
13 | Cn1ncc(O)c(C(=O)Nc2ccc(C(F)(F)F)cc2F)c1=O [Compound 50, N-[2-Fluoro-4-(trifluoromethyl)phenyl]-2,3-dihydro-5-hydroxy-2-methyl-3-oxo-4-pyridazinecarboxamide] | – | – | – | – | – | – | pest or weed control at 250 ppm (Phytophthora infestans): 99%; pest or weed control at 250 ppm (Botrytis cinerea; [3]): 85%; pest or weed control at 250 ppm [1, 3]: 100%; pest or weed control at 250 ppm [2, 3]: 98%; pest or weed control at 250 ppm (Phakopsora pachyrhizi; [3]): 0%; pest or weed control at 250 ppm (Zymoseptoria tritici; [3]): 98%
14 | Cn1ncc(Cl)c(C(=O)Nc2ccc(OC(F)(F)F)cc2F)c1=O [Compound 51] | – | – | – | – | – | – | Test D disease control rating (Phytophthora infestans; 125 ppm): 57%; Test C disease control rating (Botrytis cinerea; 125 ppm): 97%; Test F disease control rating ([1]; 125 ppm): 96%; Test G disease control rating ([2]; 125 ppm): 0%; Test A disease control rating (Phakopsora pachyrhizi; 125 ppm): 99%; Test E disease control rating (Zymoseptoria tritici; 125 ppm): 89%
15 | Cn1ncc(Cl)c(C(=O)Nc2ccc(C(F)(F)F)cc2F)c1=O [Compound 52] | – | – | – | – | – | – | Test D disease control rating (Phytophthora infestans; 160 ppm): 90%; Test C disease control rating (Botrytis cinerea; 160 ppm): 59%; Test F disease control rating ([1]; 160 ppm): 99%; Test G disease control rating ([2]; 160 ppm): 39%; Test A disease control rating (Phakopsora pachyrhizi; 160 ppm): 97%; Test E disease control rating (Zymoseptoria tritici; 160 ppm): 99%
16 | Cn1ncc(OC(=O)C(C)(C)C)c(C(=O)Nc2ccc(OC(F)(F)F)cc2)c1=O [Compound 53] | 99 | 39 | 100 | 98 | 79 | 79 | –
17 | Cc1cccc(NC(=O)c2c(O)cnn(C)c2=O)c1 [Compound 54] | 0 | 0 | 95 | 0 | 0 | 0 | –
18 | COc1cccc(NC(=O)c2c(O)cnn(C)c2=O)c1 [Compound 55] | 0 | 0 | 89 | 0 | 0 | 0 | –
19 | Cn1ncc(O)c(C(=O)Nc2cccc(C(F)(F)F)c2)c1=O [Compound 56] | 61 | 0 | 92 | 35 | 0 | 0 | –
20 | Cn1ncc(O)c(C(=O)Nc2cccc(OC(F)(F)F)c2)c1=O [Compound 57] | 0 | 0 | 84 | 98 | 0 | 8 | –
21 | COc1cnn(C)c(=O)c1C(=O)Nc1ccc(Br)cc1 [Compound 59] | 0 | 0 | 0 | 0 | 0 | 0 | –
22 | O=C(Nc1ccc(OC(F)(F)F)cc1)c1c(O)cnn(-c2ccccc2)c1=O [Compound 60] | 88 | 0 | 88 | 57 | 0 | 92 | –
23 | Cn1ncc(Cl)c(C(=O)Nc2cccc(OC(F)(F)F)c2)c1=O [Compound 63] | – | – | – | – | – | – | Test D disease control rating (Phytophthora infestans; 270 ppm): 53%; Test C disease control rating (Botrytis cinerea; 270 ppm): 53%; Test F disease control rating ([1]; 270 ppm): 86%; Test G disease control rating ([2]; 270 ppm): 48%; Test A disease control rating (Phakopsora pachyrhizi; 270 ppm): 59%; Test E disease control rating (Zymoseptoria tritici; 270 ppm): 98%
24 | Cn1ncc(Cl)c(C(=O)Nc2cccc(C(F)(F)F)c2)c1=O [Compound 64] | – | – | – | – | – | – | Test D disease control rating (Phytophthora infestans; 265 ppm): 53%; Test C disease control rating (Botrytis cinerea; 265 ppm): 76%; Test F disease control rating ([1]; 265 ppm): 91%; Test G disease control rating ([2]; 265 ppm): 0%; Test A disease control rating (Phakopsora pachyrhizi; 265 ppm): 92%; Test E disease control rating (Zymoseptoria tritici; 265 ppm): 94%
25 | O=C(Nc1ccc(OC(F)(F)F)cc1)c1c(O)cnn(-c2cccc(C(F)(F)F)c2)c1=O [Compound 71] | 0 | 0 | 0 | 0 | 12 | 0 | –
